{"source": "patent US20230365571A1", "about": "“COMPOUNDS AND COMPOSITIONS AS Sppl2a INHIBITORS” (Novartis AG, priority 2020, published 2023)", "key": {"[1]": {"molecular_target": "T1, human SPPL2a (Homo sapiens, UniProt Q8TCT8)", "T1 sequence (Q8TCT8 26-520)": "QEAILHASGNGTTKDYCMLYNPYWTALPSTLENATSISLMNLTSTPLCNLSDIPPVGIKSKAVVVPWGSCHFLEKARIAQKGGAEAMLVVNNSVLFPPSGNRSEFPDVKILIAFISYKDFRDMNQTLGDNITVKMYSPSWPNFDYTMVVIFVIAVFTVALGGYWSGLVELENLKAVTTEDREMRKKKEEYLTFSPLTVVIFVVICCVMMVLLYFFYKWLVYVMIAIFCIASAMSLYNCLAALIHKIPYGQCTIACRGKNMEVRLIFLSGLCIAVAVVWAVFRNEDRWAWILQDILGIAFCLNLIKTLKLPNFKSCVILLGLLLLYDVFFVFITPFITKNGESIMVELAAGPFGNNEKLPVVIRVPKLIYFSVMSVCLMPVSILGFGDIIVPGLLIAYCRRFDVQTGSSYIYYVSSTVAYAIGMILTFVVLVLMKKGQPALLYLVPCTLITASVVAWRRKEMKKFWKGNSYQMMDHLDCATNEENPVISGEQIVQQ", "experiment": "Sppl2a TL (translocation) imaging assay in U-2 OS cells", "assay_type": "cell-based", "design": "expressed in transfected cells", "settings": "U-2 OS cells expressing human SPPL2a and EGFP-TNFα(aa1-76) NTF substrate; 24 h", "procedure": "SPPL2a, TL in U-2 OS Cells. Stable U-2 OS cell lines expressing human SPPL2a constitutively and a EGFP-labeled TNFα(aa1-76) NTF substrate under a doxycycline-regulated promoter were used for the imaging assays. Cells were seeded at 3000 cells/30 μL/384-well in DMEM/GlutaMax™-I (Invitrogen) supplemented with tetracycline-free 10% FBS (Amimed) and incubated at 37° C., 5% CO2 for 3-4 h. Subsequently, 3.3 μL of inhibitors, prediluted in doxycycline-containing medium for 11-point concentration-response curves, were added to each well using a CyBi well liquid handling device (Cybio AG, Jena, Germany) to result in final inhibitor concentrations ranging from 100 μM to 1 nM (final DMSO concentration 0.9% (v/v)) and 5 μg/mL doxycycline). The cells were incubated with inhibitor at 37° C., 5% CO2 for 24 h. Thereafter cell were fixed in 4% PFA/PBS and in parallel, nuclei were stained with Hoechst (Invitrogen) 1:5000 in PBS for 30 min. The plates were imaged using a Cellomics ArrayScan VTI HCS reader with 10×/0.3NA objective (Thermo Fisher Scientific, USA). Six images per well were acquired. Images for the EGFP signal (Ex395, Em509) and the Hoechst nuclear dye (Ex350, Em425) were acquired simultaneously with image analysis using the “Nuclear Translocation” assay algorithm of the Cellomics ArrayScan software. Nuclei were detected based on the Hoechst staining, the nuclear mask was transferred to the EGFP channel, and a 4 pixel wide cytoplasm ring region was defined around the nucleus. The intensity of the EGFP signal was measured both in the nuclear and in the cytoplasm ring region of each individual cell (in general 800-1000 individual cells were analyzed per well), and the difference of the average nuclear versus average cytoplasmic intensity of the EGFP signal was calculated (“CircRingAvgIntenDiffCh2”=“CircAvgIntenCh2”−“RingAvgIntenCh2”). Additionally the number of cells were acquired (feature termed “ValidCellCount”) and used to calculate cell toxicity (CC50). Percent inhibition was calculated relative to the positive (0.5 μM LY-411,575=100% inhibition) and negative (DMSO=0% inhibition) controls. The IC50 value was calculated from the plot of percentage of inhibition vs inhibitor concentration using nonlinear regression analysis software, e.g., Origin (OriginLab Corp.)."}, "[2]": {"molecular_target": "T1, human SPPL2a", "experiment": "Sppl2a RGA (reporter gene assay) in HEK293 cells", "assay_type": "cell-based", "design": "expressed in transfected cells; host or cells: HEK293 (transient)", "settings": "NT-TNF-VP16-Gal4 substrate, Gal4-luciferase reporter, 24 h", "description": "Sppl2a RGA (Reporter Gene Assay):\nSppl2a is an intramembrane aspartyl protease with similarities to presenilin, the active subunit of the γ-secretase complex. The assay is based on the coupling of the proteolytic degradation of a membrane bound synthetic substrate (VP16-Gal4 fusion protein with the N-terminal domain of TNF alpha), which migrates to the nucleus upon cleavage, with the Gal4 driven expression of luciferase. Inhibition of Sppl2a results in a reduction of nuclear VP16-Gal4 activator and therefore in a reduction of the production of luciferase. The luciferase dependent-luminescence is plotted against the concentrations of compound to generate a dose response curve, which allows the calculation of the IC50 value.\nDNA vectors encoding human Sppl2a, NT-TNF-VP16-Gal4 and a Gal4-luciferase reporter were transiently transfected in HEK293 cells. In a typical experiment 5 μg plasmid for SPPL2a, 10 μg plasmid encoding the reporter Gal4-luciferase and 20 μg plasmid encoding the substrate NT-TF-VP16-Gal4 were mixed together. The DNA mixture was combined with 107 μl FuGENE® (Promega), 735 μl Opti-MEM® (Life Technologies) and incubated for 5 minutes at RT. To this mixture 20 mL of concentrated HEK293 cells were added and thoroughly mixed. The cell suspension was distributed to a white solid 384 well plate. Within 5 hours, 50 nl of compound in DMSO was stamped into the wells via pintool. The plate was incubated for 24 h at 37° C., 5% CO2 in a humidified incubator, before the addition of 25 μl Bright Glo. After incubation at RT for 5 min, the plate was transferred to a luminometer and the luminescence was measured. The IC50 was determined by plotting compound concentration vs. normalized luminescence values."}}}
{"smiles": "Cc1cnoc1C(=O)NC[C@H](C(=O)N[C@@H]1C(=O)N2CCCN2C(=O)c2ccccc21)C(F)(F)F", "note": "[Example 2, N—((R)-2-(((S)-5,11-dioxo-2,3,10,11-tetrahydro-1H,5H-benzo[d]pyrazolo[1,2-a][1,2]diazepin-10-yl)carbamoyl)-3,3,3-trifluoropropyl)-4-methylisoxazole-5-carboxamide]", "values": [{"measurement": "IC50", "setting": "[1]", "value": 450, "unit": "nM"}, {"measurement": "IC50", "setting": "[2]", "value": 180, "unit": "nM"}]}
{"smiles": "CC[C@H](CNC(=O)c1sc(-c2ccc(C(F)(F)F)nc2)nc1Cl)C(=O)N[C@@H]1C(=O)N2CCCN2Cc2ccccc21", "note": "[Example 15, 4-Chloro-N-((R)-2-(((S)-11-oxo-2,3,10,11-tetrahydro-1H,5H-benzo[d]pyrazolo [1,2-a][1,2]diazepin-10-yl)carbamoyl)butyl)-2-(6-(trifluoromethyl)pyridin-3-yl)thiazole-5-carboxamide]", "values": [{"measurement": "IC50", "setting": "[1]", "value": 11, "unit": "nM"}, {"measurement": "IC50", "setting": "[2]", "value": 8, "unit": "nM"}]}
{"smiles": "CC[C@H](CNC(=O)c1sc(-c2ccc(C(F)(F)F)nc2)nc1C)C(=O)N[C@@H]1C(=O)N2CCCN2Cc2ccccc21", "note": "[Example 18, 4-Methyl-N-((R)-2-(((S)-11-oxo-2,3,10,11-tetrahydro-1H,5H-benzo[d]pyrazolo [1,2-a][1,2]diazepin-10-yl)carbamoyl)butyl)-2-(6-(trifluoromethyl)pyridin-3-yl)thiazole-5-carboxamide]", "values": [{"measurement": "IC50", "setting": "[1]", "value": 12, "unit": "nM"}, {"measurement": "IC50", "setting": "[2]", "value": 3, "unit": "nM"}]}
{"smiles": "CC[C@H](CNC(=O)c1sc(-c2cc(C)no2)nc1C)C(=O)N[C@@H]1C(=O)N2CCCN2Cc2ccccc21", "note": "[Example 20, 4-Methyl-2-(3-methylisoxazol-5-yl)-N-((R)-2-(((S)-11-oxo-2,3,10,11-tetrahydro-1H,5H-benzo[d]pyrazolo [1,2-a][1,2]diazepin-10-yl)carbamoyl)butyl) thiazole-5-carboxamide]", "values": [{"measurement": "IC50", "setting": "[1]", "value": 12, "unit": "nM"}, {"measurement": "IC50", "setting": "[2]", "value": 220, "unit": "nM"}]}
{"smiles": "CC[C@H](CNC(=O)c1sc(C2=CCCC2)nc1Cl)C(=O)N[C@@H]1C(=O)N2CCCN2C(=O)c2ccccc21", "note": "[Example 28, 4-Chloro-2-(cyclopent-1-en-1-yl)-N-((R)-2-(((S)-5,11-dioxo-2,3,10,11-tetrahydro-1H,5H-benzo[d]pyrazolo [1,2-a][1,2]diazepin-10-yl)carbamoyl)butyl) thiazole-5-carboxamide]", "values": [{"measurement": "IC50", "setting": "[1]", "value": 28, "unit": "nM"}, {"measurement": "IC50", "setting": "[2]", "value": 88, "unit": "nM"}]}
{"smiles": "CC[C@H](CNC(=O)c1scnc1C)C(=O)N[C@@H]1C(=O)N2CCCN2Cc2ccccc21", "note": "[Example 29, 4-Methyl-N-((R)-2-(((S)-11-oxo-2,3,10,11-tetrahydro-1H,5H-benzo[d]pyrazolo [1,2-a][1,2]diazepin-10-yl)carbamoyl)butyl) thiazole-5-carboxamide]", "values": [{"measurement": "IC50", "setting": "[1]", "value": 29, "unit": "nM"}, {"measurement": "IC50", "setting": "[2]", "value": 84, "unit": "nM"}]}
{"smiles": "CCCOc1nc(C)c(C(=O)NC[C@@H](CC)C(=O)N[C@@H]2C(=O)N3CCCN3Cc3ccccc32)s1", "note": "[Example 30, 4-Methyl-N-((R)-2-(((S)-11-oxo-2,3,10,11-tetrahydro-1H,5H-benzo[d]pyrazolo [1,2-a][1,2]diazepin-10-yl)carbamoyl)butyl)-2-propoxythiazole-5-carboxamide]", "values": [{"measurement": "IC50", "setting": "[1]", "value": 29, "unit": "nM"}, {"measurement": "IC50", "setting": "[2]", "value": 16, "unit": "nM"}]}
{"smiles": "CC[C@H](CNC(=O)c1c(C)noc1C(F)(F)F)C(=O)N[C@@H]1C(=O)N2CC3(CC3)CN2C(=O)c2ccccc21", "note": "[Example 31, N-((R)-2-(((S)-5,11-Dioxo-10,11-dihydro-1H,3H,5H-spiro[benzo[d]pyr-azolo[1,2-a][1,2]diazepine-2,1′-cyclopropan]-10-yl)carbamoyl)butyl)-3-methyl-5-(trifluoromethyl) isoxazole-4-carboxamide]", "values": [{"measurement": "IC50", "setting": "[1]", "value": 33, "unit": "nM"}, {"measurement": "IC50", "setting": "[2]", "value": 22, "unit": "nM"}]}
{"smiles": "CC[C@H](CNC(=O)c1sc(-c2ccc(OC)nc2)nc1Cl)C(=O)N[C@@H]1C(=O)N2CCCN2C(=O)c2ccccc21", "note": "[Example 34, 4-Chloro-N-((R)-2-(((S)-5,11-dioxo-2,3,10,11-tetrahydro-1H,5H-benzo[d]pyrazolo [1,2-a][1,2]diazepin-10-yl)carbamoyl)butyl)-2-(6-methoxypyridin-3-yl)thiazole-5-carboxamide]", "values": [{"measurement": "IC50", "setting": "[1]", "value": 43, "unit": "nM"}, {"measurement": "IC50", "setting": "[2]", "value": 50, "unit": "nM"}]}
{"smiles": "CC[C@H](CNC(=O)c1sncc1C)C(=O)N[C@@H]1C(=O)N2CCCN2C(=O)c2ccccc21", "note": "[Example 35, N-((R)-2-(((S)-5,11-Dioxo-2,3,10,11-tetrahydro-1H,5H-benzo[d]pyrazolo [1,2-a][1,2]diazepin-10-yl)carbamoyl)butyl)-4-methylisothiazole-5-carboxamide]", "values": [{"measurement": "IC50", "setting": "[1]", "value": 45, "unit": "nM"}, {"measurement": "IC50", "setting": "[2]", "value": 34, "unit": "nM"}]}
{"smiles": "CCc1nnsc1C(=O)NC[C@@H](CC)C(=O)N[C@@H]1C(=O)N2CC3(CC3)CN2C(=O)c2ccccc21", "note": "[Example 36, N-((R)-2-(((S)-5,11-Dioxo-10,11-dihydro-1H,3H,5H-spiro[benzo[d]pyr-azolo[1,2-a][1,2]diazepine-2,1′-cyclopropan]-10-yl)carbamoyl)butyl)-4-ethyl-1,2,3-thiadiazole-5-carboxamide]", "values": [{"measurement": "IC50", "setting": "[1]", "value": 45, "unit": "nM"}, {"measurement": "IC50", "setting": "[2]", "value": 34, "unit": "nM"}]}
{"smiles": "CC[C@H](CNC(=O)c1sc(-c2ccc(OC(F)F)nc2)nc1Cl)C(=O)N[C@@H]1C(=O)N2CCCN2C(=O)c2ccccc21", "note": "[Example 37, 4-Chloro-2-(6-(difluoromethoxy)pyridin-3-yl)-N-((R)-2-(((S)-5,11-dioxo-2,3,10,11-tetrahydro-1H,5H-benzo[d]pyrazolo [1,2-a][1,2]diazepin-10-yl)carbamoyl)butyl) thiazole-5-carboxamide]", "values": [{"measurement": "IC50", "setting": "[1]", "value": 53, "unit": "nM"}, {"measurement": "IC50", "setting": "[2]", "value": 32, "unit": "nM"}]}
{"smiles": "Cc1nc(-c2ccc(C(F)(F)F)nc2)sc1C(=O)NC[C@H](C(=O)N[C@@H]1C(=O)N2CCCN2C(=O)c2ccccc21)C(F)(F)F", "note": "[Example 38, N-((R)-2-(((S)-5,11-Dioxo-2,3,10,11-tetrahydro-1H,5H-benzo[d]pyrazolo [1,2-a][1,2]diazepin-10-yl)carbamoyl)-3,3,3-trifluoropropyl)-4-methyl-2-(6-(trifluoromethyl)pyridin-3-yl)thiazole-5-carboxamide]", "values": [{"measurement": "IC50", "setting": "[1]", "value": 54, "unit": "nM"}, {"measurement": "IC50", "setting": "[2]", "value": 43, "unit": "nM"}]}
{"smiles": "CC[C@H](CNC(=O)c1scnc1Cl)C(=O)N[C@@H]1C(=O)N2CCCN2Cc2ccccc21", "note": "[Example 39, 4-Chloro-N-((R)-2-(((S)-11-oxo-2,3,10,11-tetrahydro-1H,5H-benzo[d]pyrazolo [1,2-a][1,2]diazepin-10-yl)carbamoyl)butyl) thiazole-5-carboxamide]", "values": [{"measurement": "IC50", "setting": "[1]", "value": 54, "unit": "nM"}, {"measurement": "IC50", "setting": "[2]", "value": 24, "unit": "nM"}]}
